In paper PMC9112895, “Selective Inhibition of Plasmodium falciparum ATPase 6 by Artemisinins and Identification of New Classes of Inhibitors after Expression in Yeast” (Antimicrobial Agents and Chemotherapy, 2022):

Tests used:
[1] = target: T1, L263E PfATP6 (Plasmodium falciparum, UniProt Q08853, L263E); experiment: Yeast whole-cell assay, PfATP6 L263E mutant; type: cell-based; settings: L263 mutant; read-out: IC50 (mean ± SD)
T1 construct: expressed in transfected cells; host or cells: Saccharomyces cerevisiae K667-derived strain
T1 sequence (Q08853 1-1228 L263E): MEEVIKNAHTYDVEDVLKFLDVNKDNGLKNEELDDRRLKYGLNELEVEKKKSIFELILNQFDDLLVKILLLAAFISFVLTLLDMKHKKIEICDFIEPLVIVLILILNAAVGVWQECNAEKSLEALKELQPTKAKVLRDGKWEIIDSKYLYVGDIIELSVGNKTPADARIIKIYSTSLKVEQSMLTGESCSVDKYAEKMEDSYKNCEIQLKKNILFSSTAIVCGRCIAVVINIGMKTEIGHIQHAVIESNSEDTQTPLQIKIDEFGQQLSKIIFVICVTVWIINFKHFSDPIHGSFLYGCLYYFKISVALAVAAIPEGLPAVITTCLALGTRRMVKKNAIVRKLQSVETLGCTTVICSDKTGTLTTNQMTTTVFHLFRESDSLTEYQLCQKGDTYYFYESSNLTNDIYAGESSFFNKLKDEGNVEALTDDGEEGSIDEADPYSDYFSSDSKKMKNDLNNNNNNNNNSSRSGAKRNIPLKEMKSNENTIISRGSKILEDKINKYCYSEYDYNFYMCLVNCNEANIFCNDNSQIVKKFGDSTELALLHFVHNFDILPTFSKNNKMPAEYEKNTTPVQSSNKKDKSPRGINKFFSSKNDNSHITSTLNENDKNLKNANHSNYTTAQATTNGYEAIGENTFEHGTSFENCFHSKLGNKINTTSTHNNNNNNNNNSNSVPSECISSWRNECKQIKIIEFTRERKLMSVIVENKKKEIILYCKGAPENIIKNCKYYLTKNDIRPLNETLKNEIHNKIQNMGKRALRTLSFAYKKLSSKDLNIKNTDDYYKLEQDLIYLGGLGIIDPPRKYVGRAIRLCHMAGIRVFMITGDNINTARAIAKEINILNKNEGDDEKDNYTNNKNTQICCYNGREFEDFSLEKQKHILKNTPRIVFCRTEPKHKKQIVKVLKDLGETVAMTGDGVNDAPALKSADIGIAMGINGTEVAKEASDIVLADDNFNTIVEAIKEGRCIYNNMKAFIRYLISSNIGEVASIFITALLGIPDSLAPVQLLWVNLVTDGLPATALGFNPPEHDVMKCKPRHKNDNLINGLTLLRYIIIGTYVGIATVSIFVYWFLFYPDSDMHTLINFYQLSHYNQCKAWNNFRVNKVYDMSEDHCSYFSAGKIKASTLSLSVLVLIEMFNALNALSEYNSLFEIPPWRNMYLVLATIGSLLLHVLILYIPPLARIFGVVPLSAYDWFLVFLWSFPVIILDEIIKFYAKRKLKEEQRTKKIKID
Procedure: Yeast transformations were performed using the method described by Gietz and Schiestl ([48]), and transformants were selected by an uracil auxotrophic marker. Transformations were confirmed by colony PCR. Both K667 and K667Δpdr5::HIS were transformed with the following plasmids: pUGpd plasmid as a vector-only control (derived from pRS316 [49]); br434 plasmid (derived from pRS316 [50]) containing the SERCA1a coding region from rabbit skeletal fast-twitch muscle (pbr434-SERCA1a); and pUGpd containing the yeast-optimized coding region of PfATP6 from Plasmodium falciparum (pUGpd-PfATP6). Site-directed mutagenesis was performed on the SERCA1a coding region to produce the mutation E255L in the protein. Mutations were also introduced into the PfATP6 coding region to produce mutations L263E, A623E, and S769N and the double mutation A623E/S769N ([13]).
The screening assay used here was developed from the protocol used by Pulcini et al. ([13]). […] The optimal calcium concentration was periodically monitored and, if necessary, adjusted using a calcium concentration range of 10 to 30 mM. […] The yeast growth was estimated from the absorbance at 620 nm in a Tecan plate reader. […] The data collected were analyzed using GraphPad Prism v9.0 (GraphPad software, San Diego, CA, U.S.A).

[2] = target: SERCA1a (Oryctolagus cuniculus, UniProt P04191); experiment: In vitro activity assay, SERCA1a (membrane-bound); type: biochemical, rabbit; parameters: containing the SERCA1a coding region from rabbit skeletal fast-twitch muscle; expressed in transfected cells; settings: parallel in vitro activity assay, 100 µM (Fig. S1D)
Sequence of SERCA1a (P04191 other isoform, or with tags, fused parts or gaps): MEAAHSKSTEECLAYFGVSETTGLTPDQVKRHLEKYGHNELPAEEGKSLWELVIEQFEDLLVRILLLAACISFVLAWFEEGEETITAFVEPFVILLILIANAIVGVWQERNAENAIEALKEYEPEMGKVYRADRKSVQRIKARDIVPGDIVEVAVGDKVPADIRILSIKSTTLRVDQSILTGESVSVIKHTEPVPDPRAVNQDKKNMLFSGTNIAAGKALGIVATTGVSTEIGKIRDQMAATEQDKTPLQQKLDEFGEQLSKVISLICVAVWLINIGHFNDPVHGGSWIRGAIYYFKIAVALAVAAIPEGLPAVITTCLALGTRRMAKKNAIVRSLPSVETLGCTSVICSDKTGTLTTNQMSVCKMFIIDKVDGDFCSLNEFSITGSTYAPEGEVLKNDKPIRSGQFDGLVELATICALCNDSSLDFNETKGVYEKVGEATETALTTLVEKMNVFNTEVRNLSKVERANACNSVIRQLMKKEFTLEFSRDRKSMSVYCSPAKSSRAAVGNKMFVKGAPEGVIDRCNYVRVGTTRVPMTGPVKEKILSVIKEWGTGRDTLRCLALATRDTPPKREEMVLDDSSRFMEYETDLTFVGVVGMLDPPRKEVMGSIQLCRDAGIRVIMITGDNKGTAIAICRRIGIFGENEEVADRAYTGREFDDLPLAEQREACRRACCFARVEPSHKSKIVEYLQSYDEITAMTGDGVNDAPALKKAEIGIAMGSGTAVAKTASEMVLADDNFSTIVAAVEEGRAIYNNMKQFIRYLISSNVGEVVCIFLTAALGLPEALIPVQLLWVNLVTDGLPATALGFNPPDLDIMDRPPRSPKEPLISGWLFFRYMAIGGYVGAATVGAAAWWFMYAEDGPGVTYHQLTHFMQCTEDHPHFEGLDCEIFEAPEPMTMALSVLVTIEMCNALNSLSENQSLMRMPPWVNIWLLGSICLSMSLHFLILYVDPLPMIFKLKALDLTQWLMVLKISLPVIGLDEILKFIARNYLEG
Procedure: Activity assays were performed as described by Longland et al. ([55]) and LeBel et al. ([56]), except that the reaction mixtures were incubated at 30°C instead of 37°C. […] Then, 5.8 mM ATP was added and incubated for an additional 15 min at 30°C. The reaction was stopped with 0.5 mL 6.5% trichloroacetic acid (TCA) on ice, and the mixture was centrifuged at 4°C for 10 min at 16,000 × g; 0.5 mL of the supernatant was added to 1.5 mL of copper acetate buffer (0.25% copper sulfate pentahydrate, 4.6% sodium acetate trihydrate, dissolved in 2 M acetic acid [pH 4.0]) and mixed by vortex-mixing before the addition of 0.25 mL of 5% ammonium molybdate, followed by 0.25 mL METOL buffer (2% p-methyl-aminophenol sulfate, 5% sodium sulfite). Samples were incubated for 10 min, and the absorbance was measured at 870 nm in a spectrophotometer. The Pi standard was 0.4387 g/100 mL KH2PO4.

Compound: CC(=O)C1=C(O)[C@@H]2[C@H]3c4c[nH]c5cccc(c45)C[C@H]3C(C)(C)N2C1=O [CPA, cyclopiazonic acid]
- IC50 [1]: 5.21 µM
- inhibition of purified SERCA1a activity [2]: apparent inhibition
